# Source: ChEMBL document CHEMBL4346715, “Antibacterial activity study of 1,2,4-triazole derivatives” (Eur J Med Chem, 2019)
# Legend:
# Escherichia coli [1] = assay: Antibacterial activity against Escherichia coli; type: functional
# Staphylococcus aureus [2] = assay: Antibacterial activity against Staphylococcus aureus; type: functional
# Streptococcus pneumoniae = assay: Antibacterial activity against Streptococcus pneumoniae; type: functional
# Bacillus subtilis = assay: Antibacterial activity against Bacillus subtilis; type: functional
# Clostridium tetani = assay: Antibacterial activity against Clostridium tetani; type: functional
# Escherichia coli [3] = assay: Antibacterial activity against Escherichia coli incubated for 18 hrs post 30 mins pre-diffusion by disk diffusion method; type: functional
# Staphylococcus aureus [4] = assay: Antibacterial activity against Staphylococcus aureus incubated for 18 hrs post 30 mins pre-diffusion by disk diffusion method; type: functional
# Candida albicans [5] = assay: Antifungal activity against Candida albicans; type: functional
# Aspergillus niger = assay: Antifungal activity against Aspergillus niger; type: functional
# Pseudomonas aeruginosa [6] = assay: Antibacterial activity against Pseudomonas aeruginosa; type: functional
# Bacillus cereus = assay: Antibacterial activity against Bacillus cereus ATCC 10876 after 24 hrs by microdilution method; type: functional; settings: ATCC 10876, 24 h
# Enterococcus faecalis = assay: Antibacterial activity against Enterococcus faecalis ATCC 29212 after 24 hrs by microdilution method; type: functional; settings: ATCC 29212, 24 h
# Staphylococcus aureus [7] = assay: Antibacterial activity against Staphylococcus aureus ATCC 25923 after 24 hrs by microdilution method; type: functional; settings: ATCC 25923, 24 h
# Proteus mirabilis = assay: Antibacterial activity against Proteus mirabilis ATCC 35659 after 24 hrs by microdilution method; type: functional; settings: ATCC 35659, 24 h
# Escherichia coli [8] = assay: Antibacterial activity against Escherichia coli ATCC 25922 after 24 hrs by microdilution method; type: functional; settings: ATCC 25922, 24 h
# Pseudomonas aeruginosa [9] = assay: Antibacterial activity against Pseudomonas aeruginosa ATCC 27853 after 24 hrs by microdilution method; type: functional; settings: ATCC 27853, 24 h
# Candida albicans [10] = assay: Antifungal activity against Candida albicans ATCC 50193 after 24 hrs by microdilution method; type: functional; settings: ATCC 50193, 24 h
# Aspergillus brasiliensis = assay: Antifungal activity against Aspergillus brasiliensis ATCC 16404 after 24 hrs by microdilution method; type: functional; settings: ATCC 16404, 24 h
# Listeria monocytogenes = assay: Antibacterial activity against Listeria monocytogenes ATCC 35152 after 24 hrs by broth microdilution method; type: functional; settings: ATCC 35152, 24 h
# Staphylococcus aureus [11] = assay: Antibacterial activity against Staphylococcus aureus ATCC 49444 after 24 hrs by broth microdilution method; type: functional; settings: ATCC 49444, 24 h
# Pseudomonas aeruginosa [12] = assay: Antibacterial activity against Pseudomonas aeruginosa ATCC 27853 after 24 hrs by broth microdilution method; type: functional; settings: ATCC 27853, 24 h
# Salmonella typhimurium = assay: Antibacterial activity against Salmonella typhimurium ATCC 14028 after 24 hrs by broth microdilution method; type: functional, Salmonella enterica subsp. enterica serovar Typhimurium; settings: Salmonella enterica, ATCC 14028, 24 h
# Escherichia coli [13] = assay: Antibacterial activity against Escherichia coli after 24 hrs by broth microdilution method; type: functional
compound,measurement,setting,value
NYSTATIN,MIC,Escherichia coli [1],100 to 500 µg/mL
same,MIC,Staphylococcus aureus [2],100 to 500 µg/mL
same,MIC,Streptococcus pneumoniae,100 to 500 µg/mL
same,MIC,Bacillus subtilis,100 to 500 µg/mL
same,MIC,Clostridium tetani,100 to 500 µg/mL
CSc1nccc(Sc2nnc(-c3cc(C(F)(F)F)cc(C(F)(F)F)c3)[nH]2)n1,MIC,Escherichia coli [3],1.6 to 250 µg/mL
same,MIC,Staphylococcus aureus [4],1.6 to 250 µg/mL
CSc1nc(Cl)cc(Sc2nnc(-c3cc(C)cc(C)c3)[nH]2)n1,MIC,Escherichia coli [3],1.6 to 250 µg/mL
same,MIC,Staphylococcus aureus [4],1.6 to 250 µg/mL
COc1ccc(/C=N/n2c(S)nnc2-c2ccncc2)cc1,MIC,Escherichia coli [1],10.2 to 162 µg/mL
same,MIC,Staphylococcus aureus [2],10.2 to 162 µg/mL
same,MIC,Bacillus subtilis,10.2 to 162 µg/mL
same,MIC,Candida albicans [5],10.2 to 162 µg/mL
same,MIC,Aspergillus niger,10.2 to 162 µg/mL
same,MIC,Pseudomonas aeruginosa [6],10.2 to 162 µg/mL
CCCCCCCCCCn1nnc(-c2n[nH]c(=S)n2N)c1-c1n[nH]c(=S)n1N,MIC,Bacillus cereus,1 to 128 µg/mL
same,MIC,Enterococcus faecalis,1 to 128 µg/mL
same,MIC,Staphylococcus aureus [7],1 to 128 µg/mL
same,MIC,Proteus mirabilis,1 to 128 µg/mL
same,MIC,Escherichia coli [8],1 to 128 µg/mL
same,MIC,Pseudomonas aeruginosa [9],1 to 128 µg/mL
same,MIC,Candida albicans [10],1 to 128 µg/mL
same,MIC,Aspergillus brasiliensis,1 to 128 µg/mL
CSc1nc(Cl)cc(Sc2nnc(-c3ccc(C(F)(F)F)cc3)[nH]2)n1,MIC,Escherichia coli [3],1.6 to 250 µg/mL
same,MIC,Staphylococcus aureus [4],1.6 to 250 µg/mL
COC1=CC(=O)C[C@@H](C)[C@]12Oc1c(Cl)c(OC)cc(OC)c1C2=O [GRISEOFULVIN],MIC,Escherichia coli [1],100 to 500 µg/mL
same,MIC,Staphylococcus aureus [2],100 to 500 µg/mL
same,MIC,Streptococcus pneumoniae,100 to 500 µg/mL
same,MIC,Bacillus subtilis,100 to 500 µg/mL
same,MIC,Clostridium tetani,100 to 500 µg/mL
Cc1nc(-c2ccccc2)sc1-c1nnc(S)n1/N=C/c1ccc(O)cc1,MIC,Listeria monocytogenes,1.95 to 62.5 µg/mL
same,MIC,Staphylococcus aureus [11],1.95 to 62.5 µg/mL
same,MIC,Pseudomonas aeruginosa [12],1.95 to 62.5 µg/mL
same,MIC,Salmonella typhimurium,1.95 to 62.5 µg/mL
same,MIC,Escherichia coli [13],1.95 to 62.5 µg/mL
COc1cc(OC)cc(-c2nnc(Sc3cc(Cl)nc(SC)n3)[nH]2)c1,MIC,Escherichia coli [3],1.6 to 250 µg/mL
same,MIC,Staphylococcus aureus [4],1.6 to 250 µg/mL
Cc1nc(-c2ccccc2)sc1-c1nnc(S)n1/N=C/c1cccc(Cl)c1Cl,MIC,Listeria monocytogenes,1.95 to 62.5 µg/mL
same,MIC,Staphylococcus aureus [11],1.95 to 62.5 µg/mL
same,MIC,Pseudomonas aeruginosa [12],1.95 to 62.5 µg/mL
same,MIC,Salmonella typhimurium,1.95 to 62.5 µg/mL
same,MIC,Escherichia coli [13],1.95 to 62.5 µg/mL
Fc1ccc(/C=N/n2c(-c3ccncc3)n[nH]c2=S)cc1,MIC,Escherichia coli [1],10.2 to 162 µg/mL
same,MIC,Staphylococcus aureus [2],10.2 µg/mL
same,MIC,Bacillus subtilis,10.2 to 162 µg/mL
same,MIC,Candida albicans [5],10.2 to 162 µg/mL
same,MIC,Aspergillus niger,10.2 to 162 µg/mL
same,MIC,Pseudomonas aeruginosa [6],12.5 µg/mL
CSc1nccc(Sc2nnc(-c3cc(C)cc(C)c3)[nH]2)n1,MIC,Escherichia coli [3],1.6 to 250 µg/mL
same,MIC,Staphylococcus aureus [4],1.6 to 250 µg/mL
Brc1ccccc1-c1nnc2sc(-c3ccccc3)nn12,MIC,Candida albicans [5],3.12 µg/mL
same,MIC,Aspergillus niger,6.25 µg/mL
Sc1nnc(-c2ccncc2)n1/N=C/c1ccc(Cl)cc1,MIC,Escherichia coli [1],10.2 to 162 µg/mL
same,MIC,Staphylococcus aureus [2],10.2 to 162 µg/mL
same,MIC,Bacillus subtilis,10.2 to 162 µg/mL
same,MIC,Candida albicans [5],10.2 to 162 µg/mL
same,MIC,Aspergillus niger,10.2 to 162 µg/mL
same,MIC,Pseudomonas aeruginosa [6],10.2 to 162 µg/mL
Cc1nn(-c2ccccc2)c(-n2cncn2)c1-c1cc(-c2ccc(-c3cccs3)cc2)nc2nc3ccccc3n12,MIC,Escherichia coli [1],62.5 to 250 µg/mL
same,MIC,Staphylococcus aureus [2],62.5 to 250 µg/mL
same,MIC,Streptococcus pneumoniae,62.5 to 250 µg/mL
same,MIC,Bacillus subtilis,62.5 to 250 µg/mL
same,MIC,Clostridium tetani,62.5 to 250 µg/mL
CCCCCSc1nc(Cl)cc(Sc2nnc(-c3cc(C(F)(F)F)cc(C(F)(F)F)c3)[nH]2)n1,MIC,Escherichia coli [3],1.6 to 250 µg/mL
same,MIC,Staphylococcus aureus [4],1.6 to 250 µg/mL
O=[N+]([O-])c1ccc(/C=N/n2c(S)nnc2-c2ccncc2)cc1,MIC,Escherichia coli [1],10.2 to 162 µg/mL
same,MIC,Staphylococcus aureus [2],10.2 to 162 µg/mL
same,MIC,Bacillus subtilis,10.2 to 162 µg/mL
same,MIC,Candida albicans [5],10.2 to 162 µg/mL
same,MIC,Aspergillus niger,10.2 to 162 µg/mL
same,MIC,Pseudomonas aeruginosa [6],10.2 to 162 µg/mL
Cc1cc(C)cc(-c2nnc(Sc3cc(Cl)ncn3)[nH]2)c1,MIC,Escherichia coli [3],1.6 to 250 µg/mL
same,MIC,Staphylococcus aureus [4],1.6 to 250 µg/mL
FC(F)(F)c1cccc(-c2nnc(Sc3cc(Cl)nc(Sc4ccccc4)n3)[nH]2)c1,MIC,Escherichia coli [3],1.6 to 250 µg/mL
same,MIC,Staphylococcus aureus [4],1.6 to 250 µg/mL
FC(F)(F)c1cc(-c2nnc(Sc3cc(Cl)nc(Oc4ccccc4)n3)[nH]2)cc(C(F)(F)F)c1,MIC,Escherichia coli [3],1.6 to 250 µg/mL
same,MIC,Staphylococcus aureus [4],1.6 to 250 µg/mL
Cc1nc(-c2ccccc2)sc1-c1nnc(S)n1/N=C/c1cccc(O)c1,MIC,Listeria monocytogenes,1.95 to 62.5 µg/mL
same,MIC,Staphylococcus aureus [11],1.95 to 62.5 µg/mL
same,MIC,Pseudomonas aeruginosa [12],1.95 to 62.5 µg/mL
same,MIC,Salmonella typhimurium,1.95 to 62.5 µg/mL
same,MIC,Escherichia coli [13],1.95 to 62.5 µg/mL
Sc1nnc(-c2ccncc2)n1/N=C/c1ccccc1,MIC,Escherichia coli [1],10.2 to 162 µg/mL
same,MIC,Staphylococcus aureus [2],14.1 to 17.2 µg/mL
same,MIC,Bacillus subtilis,10.2 to 162 µg/mL
same,MIC,Candida albicans [5],10.2 to 162 µg/mL
same,MIC,Aspergillus niger,10.2 to 162 µg/mL
same,MIC,Pseudomonas aeruginosa [6],14.1 to 17.2 µg/mL
Cc1nc(-c2ccccc2)sc1-c1nnc(S)n1/N=C/c1ccccc1O,MIC,Listeria monocytogenes,1.95 to 62.5 µg/mL
same,MIC,Staphylococcus aureus [11],1.95 to 62.5 µg/mL
same,MIC,Pseudomonas aeruginosa [12],1.95 to 62.5 µg/mL
same,MIC,Salmonella typhimurium,1.95 to 62.5 µg/mL
same,MIC,Escherichia coli [13],1.95 to 62.5 µg/mL
COc1cc(/C=N/n2c(S)nnc2-c2ccncc2)cc(OC)c1OC,MIC,Escherichia coli [1],10.2 to 162 µg/mL
same,MIC,Staphylococcus aureus [2],10.2 to 162 µg/mL
same,MIC,Bacillus subtilis,10.2 to 162 µg/mL
same,MIC,Candida albicans [5],10.2 to 162 µg/mL
same,MIC,Aspergillus niger,10.2 to 162 µg/mL
same,MIC,Pseudomonas aeruginosa [6],10.2 to 162 µg/mL
COc1cc(-c2nnc(Sc3cc(Cl)nc(Sc4ccccc4)n3)[nH]2)ccc1O,MIC,Escherichia coli [3],1.6 to 250 µg/mL
same,MIC,Staphylococcus aureus [4],1.6 to 250 µg/mL
